Measured values as given in patent US20240150377A1, “MODULATORS OF CYSTIC FIBROSIS TRANSMEMBRANE CONDUCTANCE REGULATOR” (VERTEX PHARMACEUTICALS INCORPORATED, priority 2020, published 2024).
pEC50: −log10 of the molar value. Read-outs that look alike come from different tables or passages of the source. Each block holds one molecule with its values, some of them ahead of it.

How the values were obtained:
[1] = biological target: T1, CFTR (Homo sapiens, UniProt P13569, DEL508-508); test: HBE assay: Ussing chamber assay of CFTR-mediated short-circuit currents; format: cell-based; conditions: for pEC50: read-out: HBE EC50
T1 construct: endogenous in cells; host or cells: primary human bronchial epithelial cells from CF subjects (F508del/MF-HBE), differentiated at air-liquid interface
T1 sequence (P13569 with tags, fused parts or gaps DEL508-508): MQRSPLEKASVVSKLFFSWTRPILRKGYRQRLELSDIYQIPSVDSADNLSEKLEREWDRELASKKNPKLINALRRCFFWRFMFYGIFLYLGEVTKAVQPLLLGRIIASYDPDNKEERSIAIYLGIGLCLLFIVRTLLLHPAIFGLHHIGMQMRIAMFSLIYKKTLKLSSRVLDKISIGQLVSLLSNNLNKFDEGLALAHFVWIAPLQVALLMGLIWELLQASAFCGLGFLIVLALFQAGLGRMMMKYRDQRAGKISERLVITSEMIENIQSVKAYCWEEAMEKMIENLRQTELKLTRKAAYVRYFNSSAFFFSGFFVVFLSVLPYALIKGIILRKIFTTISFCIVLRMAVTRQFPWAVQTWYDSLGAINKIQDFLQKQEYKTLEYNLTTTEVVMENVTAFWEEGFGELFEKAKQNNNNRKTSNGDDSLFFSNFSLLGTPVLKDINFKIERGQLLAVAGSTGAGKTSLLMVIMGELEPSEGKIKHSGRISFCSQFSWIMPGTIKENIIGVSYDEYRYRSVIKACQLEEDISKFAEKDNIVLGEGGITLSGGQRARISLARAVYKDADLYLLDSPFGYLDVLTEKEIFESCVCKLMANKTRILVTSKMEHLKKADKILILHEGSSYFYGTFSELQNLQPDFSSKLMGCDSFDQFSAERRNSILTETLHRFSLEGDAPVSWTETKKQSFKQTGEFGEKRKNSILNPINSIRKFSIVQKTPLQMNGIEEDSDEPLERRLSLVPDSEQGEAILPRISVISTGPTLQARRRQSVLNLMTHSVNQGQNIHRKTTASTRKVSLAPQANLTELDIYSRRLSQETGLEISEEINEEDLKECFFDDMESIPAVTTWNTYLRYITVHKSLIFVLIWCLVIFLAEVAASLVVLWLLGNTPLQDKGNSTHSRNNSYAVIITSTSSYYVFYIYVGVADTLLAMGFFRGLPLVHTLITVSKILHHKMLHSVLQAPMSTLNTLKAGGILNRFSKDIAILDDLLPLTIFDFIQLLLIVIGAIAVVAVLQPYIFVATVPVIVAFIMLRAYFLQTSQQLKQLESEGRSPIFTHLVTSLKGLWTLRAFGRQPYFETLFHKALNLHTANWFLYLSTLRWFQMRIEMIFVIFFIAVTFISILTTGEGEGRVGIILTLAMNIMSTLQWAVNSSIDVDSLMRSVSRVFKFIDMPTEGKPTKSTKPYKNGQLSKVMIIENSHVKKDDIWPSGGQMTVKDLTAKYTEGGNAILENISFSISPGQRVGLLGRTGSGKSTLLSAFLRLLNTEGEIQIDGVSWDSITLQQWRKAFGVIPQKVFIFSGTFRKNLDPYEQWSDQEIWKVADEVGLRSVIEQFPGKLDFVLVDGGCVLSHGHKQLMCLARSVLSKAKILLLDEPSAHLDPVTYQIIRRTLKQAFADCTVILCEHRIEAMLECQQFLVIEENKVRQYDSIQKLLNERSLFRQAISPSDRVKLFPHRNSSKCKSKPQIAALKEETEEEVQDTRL
In short: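 CFTR-mediated Isc (μA/cm²) equals the peak response to apical 20 μM forskolin minus the residual after a 20 μM each BPO/GlyH-101/CFTR inhibitor 172 cocktail, recorded in Ussing chambers at Vhold 0 mV, 37 °C, pH 7.4, with 30 μM apical amiloride. Cells were F508del/MF HBE cultures preincubated 18-24 h with corrector (concentration range or 10 μM) plus 1 μM ivacaftor in 20% human serum.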

[2] = amide bond, 13-membered ring
[3] = biological target: T1, CFTR; test: HBE2 assay: Ussing chamber assay of CFTR-mediated short-circuit currents; format: cell-based; conditions: F508del/MF-HBE cells, with 44 nM potentiator, 18-24 hours, 20% human serum
In short: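 Corrector activity read as CFTR-dependent ISC (μA/cm^2): peak forskolin current minus post-inhibitor steady state. Measured at 37 °C, voltage clamp at 0 mV, on F508del/MF-HBE epithelia grown >14 days air-liquid interface in Ussing chambers.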

[4] = amide bond, 13-membered ring, DMF, 25.0 °C, 0.33 h
[5] = biological target: T2, CFTR (Homo sapiens, UniProt P13569); test: Membrane potential dye, Enteroid Assay A; format: cell-based; conditions: Table 6; for Ent. A Max Activity: chloride transport as % of triple combination control (Enteroid Assay A); for pEC50: human enteroid cells, 18-24 hours, acute 10 μM forskolin and 300 nM ivacaftor, read-out: Ent. A EC50
In short: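 % Activity: chloride transport relative to a 3 μM/3 μM corrector pair plus 300 nM acute potentiator control. Primary human enteroid cells, 18-24 h compound exposure at 37 °C; membrane potential dye (methyl oxonol) fluorescence over 15 min after forskolin (10 μM)/IBMX (100 μM)/Compound III (300 nM) stimulation in chloride-free buffer.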
Target sequence in this assay (P13569 with tags, fused parts or gaps DEL508-508): as above

[6] = biological target: T2, CFTR; test: standard Ussing Chamber Assay for CFTR potentiator activity; format: cell-based; conditions: qualitative statement
Target sequence in this assay (P13569 whole entry, species assumed): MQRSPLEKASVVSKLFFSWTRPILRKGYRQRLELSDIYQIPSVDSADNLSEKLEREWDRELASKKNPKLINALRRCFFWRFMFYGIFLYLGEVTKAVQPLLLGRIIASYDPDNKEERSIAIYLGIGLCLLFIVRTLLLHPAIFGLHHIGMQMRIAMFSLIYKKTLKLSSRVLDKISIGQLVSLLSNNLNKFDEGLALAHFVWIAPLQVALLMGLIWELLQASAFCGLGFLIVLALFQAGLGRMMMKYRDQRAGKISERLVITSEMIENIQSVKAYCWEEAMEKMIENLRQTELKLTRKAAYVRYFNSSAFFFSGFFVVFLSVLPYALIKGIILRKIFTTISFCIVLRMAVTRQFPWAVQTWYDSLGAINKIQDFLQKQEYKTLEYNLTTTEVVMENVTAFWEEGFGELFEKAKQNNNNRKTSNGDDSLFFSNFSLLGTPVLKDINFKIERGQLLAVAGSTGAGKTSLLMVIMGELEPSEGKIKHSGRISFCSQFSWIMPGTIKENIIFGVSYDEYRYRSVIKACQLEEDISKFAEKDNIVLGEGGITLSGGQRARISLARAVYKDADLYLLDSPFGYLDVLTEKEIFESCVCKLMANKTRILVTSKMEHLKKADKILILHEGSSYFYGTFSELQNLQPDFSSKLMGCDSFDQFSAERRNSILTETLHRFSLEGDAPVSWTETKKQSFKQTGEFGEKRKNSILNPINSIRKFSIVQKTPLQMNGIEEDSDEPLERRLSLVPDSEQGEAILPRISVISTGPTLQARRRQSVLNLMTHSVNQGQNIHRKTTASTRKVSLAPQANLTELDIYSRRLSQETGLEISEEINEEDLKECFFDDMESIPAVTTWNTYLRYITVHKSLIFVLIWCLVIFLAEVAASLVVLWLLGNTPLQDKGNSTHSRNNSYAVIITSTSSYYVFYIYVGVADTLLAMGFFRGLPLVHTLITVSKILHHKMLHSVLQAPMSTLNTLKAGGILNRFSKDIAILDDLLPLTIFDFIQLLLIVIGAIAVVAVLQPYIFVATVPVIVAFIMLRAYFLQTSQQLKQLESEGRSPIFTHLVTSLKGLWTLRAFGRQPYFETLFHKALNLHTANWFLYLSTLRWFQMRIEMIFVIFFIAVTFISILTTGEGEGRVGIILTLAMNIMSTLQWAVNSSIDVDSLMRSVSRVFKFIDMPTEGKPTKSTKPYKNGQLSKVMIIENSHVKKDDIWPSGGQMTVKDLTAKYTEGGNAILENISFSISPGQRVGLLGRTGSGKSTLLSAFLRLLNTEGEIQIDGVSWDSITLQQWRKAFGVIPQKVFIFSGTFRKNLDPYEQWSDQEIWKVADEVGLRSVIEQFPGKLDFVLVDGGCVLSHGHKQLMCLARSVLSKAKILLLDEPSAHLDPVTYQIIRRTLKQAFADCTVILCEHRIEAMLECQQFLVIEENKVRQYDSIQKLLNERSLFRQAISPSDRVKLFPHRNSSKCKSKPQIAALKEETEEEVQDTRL

[7] = HBE assay, read-out: HBE Max activity (%)

Compound: Cc1cccc(C)c1-c1cc2nc(n1)NS(=O)(=O)c1cccc(c1)C(=O)N(Cc1ncc(OC(C)C)cn1)[C@H](CCC(C)(C)C)CO2 [Compound 1296, (11R)-11-(3,3-Dimethylbutyl)-6-(2,6-dimethylphenyl)-12-[(5-isopropoxypyrimidin-2-yl)methyl]-2,2-dioxo-9-oxa-2λ^6-thia-3,5,12,19-tetrazatricyclo[12.3.1.14,8]nonadeca-1(18),4(19),5,7,14,16-hexaen-13-one]
- pEC50 ([1]; HBE assay): > 6.00
- Emax [1, 7]: > 60%
- ring closure, isolated yield ([2]; from Cc1cccc(C)c1-c1cc(OC[C@@H](CCC(C)(C)C)NCc2ncc(OC(C)C)cn2)nc(NS(=O)(=O)c2cccc(C(=O)O)c2)n1, CDMT/NMM, DMF, 29.6 mM, 21.0 h): 60%
- HBE2 Activity at 3 μM (%) [3]: +++ (+++ is >60+)

Compound: CCOC(=O)CCCCN1C(=O)c2cccc(n2)S(=O)(=O)Nc2nc(cc(-c3c(C)cccc3C)n2)OC[C@H]1CC(C)(C)C
- ring closure, crude yield ([4]; from CCOC(=O)CCCCN[C@@H](COc1cc(-c2c(C)cccc2C)nc(NS(=O)(=O)c2cccc(C(=O)O)n2)n1)CC(C)(C)C, HATU/DIEA, 26.1 mM): 100%

Compound: Cc1cccc(C)c1-c1cc2nc(n1)NS(=O)(=O)c1cccc(c1)C(=O)N(Cc1ncc(N3CC(C)(C)C3)cn1)[C@H](CC(C)(C)C)CO2 [Compound 331]
- pEC50 ([1]; Table 11): > 6.00
- Emax ([1]; Table 11, read-out: HBE Max Activity (%)): > 60%
- ring closure, isolated yield ([2]; from Cc1cccc(C)c1-c1cc(OC[C@@H](CC(C)(C)C)NCc2ncc(N3CC(C)(C)C3)cn2)nc(NS(=O)(=O)c2cccc(C(=O)O)c2)n1, T3P/DIEA, MeCN, 34.5 mM, 0.0 °C, 2.5 h): 53%

Compound: C[C@@H]1CCCCC[C@](O)(C(F)(F)F)C2=NN=C(O2)c2nc(c(C(F)(F)F)cc2N)O1 [(6R,12R)-17-amino-12-methyl-6,15-bis(trifluoromethyl)-13,19-dioxa-3,4,18-triazatricyclo[12.3.1.12,5]nonadeca-1(18),2,4,14,16-pentaen-6-ol]
- CFTR modulatory activity [6]: confirmed

Compound: COCN1c2nc(cc(-c3c(C)cccc3C)n2)OC[C@@H](CC(C)C)NC(=O)c2cccc(c2)S1(=O)=O
- ring closure, crude yield ([4]; from COCN(c1nc(OC[C@H](N)CC(C)C)cc(-c2c(C)cccc2C)n1)S(=O)(=O)c1cccc(C(=O)O)c1, HATU/Et3N, 106.0 mM): 100%

Second part, led by results:

- Ent. A Max Activity [5]: ++ (++ is 30-60%)
- pEC50 [5]: 4.52 to 5.52
Compound: Cc1cccc(C)c1-c1cc2nc(n1)NS(=O)(=O)c1cccc(c1)C(=O)N(C)CC(CNC(=O)OC(C)(C)C)O2 (stereo not shown) [Compound 97, tert-Butyl N-[[6-(2,6-dimethylphenyl)-12-methyl-2,2,13-trioxo-9-oxa-2λ^6-thia-3,5,12,19-tetrazatricyclo[12.3.1.14,8]nonadeca-1(18),4(19),5,7,14,16-hexaen-10-yl]methyl]carbamate]
- ring closure, isolated yield ([2]; from CNCC(CNC(=O)OC(C)(C)C)Oc1cc(-c2c(C)cccc2C)nc(NS(=O)(=O)c2cccc(C(=O)O)c2)n1, HATU/DIEA, DMF, 37.9 mM, 25.0 °C, 0.25 h): 42%

- Ent. A Max Activity [5]: +++ (+++ is >60%)
- pEC50 [5]: > 6.00
Compound: Cc1cccc(C)c1-c1cc2nc(n1)NS(=O)(=O)c1cccc(c1)C(=O)N(C)CC(c1ccc(Br)cc1)O2 (stereo not shown) [Compound 8, 10-(4-Bromophenyl)-6-(2,6-dimethylphenyl)-12-methyl-2,2-dioxo-9-oxa-2λ^6-thia-3,5,12,19-tetrazatricyclo[12.3.1.14,8]nonadeca-1(18),4(19),5,7,14,16-hexaen-13-one]
- ring closure, isolated yield ([2]; from CNCC(Oc1cc(-c2c(C)cccc2C)nc(NS(=O)(=O)c2cccc(C(=O)O)c2)n1)c1ccc(Br)cc1, HATU/DIEA, DMF, 29.7 mM, 25.0 °C, 2.0 h, 2 steps): 61%

- Ent. A Max Activity [5]: ++ (++ is 30-60%)
- pEC50 [5]: 5.52 to 6.00
Compound: Cc1cccc(C)c1-c1cc2nc(n1)NS(=O)(=O)c1cccc(c1)C(=O)N(C)CC(COCc1ccccc1)O2 (stereo not shown) [Compound 99, 10-(benzyloxymethyl)-6-(2,6-dimethylphenyl)-12-methyl-2,2-dioxo-9-oxa-2λ^6-thia-3,5,12,19-tetrazatricyclo[12.3.1.14,8]nonadeca-1(18),4(19),5,7,14,16-hexaen-13-one]
- ring closure, isolated yield ([2]; from CNCC(COCc1ccccc1)Oc1cc(-c2c(C)cccc2C)nc(NS(=O)(=O)c2cccc(C(=O)O)c2)n1, HATU/DIEA, DMF, 33.6 mM, 25.0 °C, 0.25 h): 58%

- pEC50 ([1]; HBE assay): > 6.00
- Emax [1, 7]: > 60%
- HBE2 Activity at 3 μM (%) [3]: +++ (+++ is >60+)
- pEC50 [3]: > 6.00
- Emax ([3]; read-out: HBE2 Max activity (%)): > 60%
Compound: Cc1cccc(C)c1-c1cc2nc(n1)NS(=O)(=O)c1cccc(c1)C(=O)N(Cc1ncc(OC(C)C)cn1)[C@H](CC1CCC1)CO2 [Compound 1297, (11R)-11-(Cyclobutylmethyl)-6-(2,6-dimethylphenyl)-12-[(5-isopropoxypyrimidin-2-yl)methyl]-2,2-dioxo-9-oxa-2λ^6-thia-3,5,12,19-tetrazatricyclo[12.3.1.14,8]nonadeca-1(18),4(19),5,7,14,16-hexaen-13-one]
- ring closure, isolated yield ([2]; from Cc1cccc(C)c1-c1cc(OC[C@@H](CC2CCC2)NCc2ncc(OC(C)C)cn2)nc(NS(=O)(=O)c2cccc(C(=O)O)c2)n1, CDMT/NMM, DMF, 30.4 mM, 15.0 h): 58%
